According to PubChem BioAssay (NCI):
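How tested: cells in 96-well plates exposed to compound for 48 hours at five concentrations. GI50 is the concentration that inhibits growth by half. TGI: concentration producing complete growth inhibition.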

Experiments:
Assay in all cases: growth of human tumour cells (NCI), 48 h
[1] = test system: 786-0 renal
[2] = test system: A498 renal
[3] = test system: A549 NSCLC
[4] = test system: ACHN renal
[5] = test system: BT-549 breast
[6] = test system: CAKI-1 renal
[7] = test system: CCRF-CEM leukemia
[8] = test system: COLO 205 colon
[9] = test system: DU-145 prostate
[10] = test system: EKVX NSCLC
[11] = test system: HCC-2998 colon
[12] = test system: HCT-116 colon
[13] = test system: HCT-15 colon
[14] = test system: HL-60(TB) leukemia
[15] = test system: HOP-62 NSCLC
[16] = test system: HS 578T breast
[17] = test system: HT29 colon
[18] = test system: IGROV1 ovarian
[19] = test system: K-562 leukemia
[20] = test system: KM12 colon
[21] = test system: LOX IMVI melanoma
[22] = test system: M14 melanoma
[23] = test system: MALME-3M melanoma
[24] = test system: MCF7 breast
[25] = test system: MDA-MB-231 breast
[26] = test system: MDA-MB-435
[27] = test system: MOLT-4 leukemia
[28] = test system: NCI-H226 lung
[29] = test system: NCI-H23 lung

N=c1c2c(-c3ccccc3)c(-c3ccccc3)n(Cc3ccccc3)c2ncn1CCCO
GI50 [1]: 1.92 µM
TGI [1]: 16.2 µM
GI50 [2]: 3.3 µM
TGI [2]: 19.7 µM
GI50 [3]: 0.561 µM
TGI [3]: 15.5 µM
GI50 [4]: 0.457 µM
TGI [4]: 14.3 µM
GI50 [5]: 7.81 µM
TGI [5]: 21.2 µM
GI50 [6]: 0.692 µM
TGI [6]: 6.57 µM
GI50 [7]: 1.87 µM
TGI [7]: 12.8 µM
GI50 [8]: 0.681 µM
TGI [8]: 2.02 µM
GI50 [9]: 3.14 µM
TGI [9]: 19.1 µM
GI50 [10]: 4.4 µM
TGI [10]: 21.3 µM
GI50 [11]: 1.43 µM
TGI [11]: 7.07 µM
GI50 [12]: 0.406 µM
TGI [12]: 4.84 µM
GI50 [13]: 0.696 µM
TGI [13]: 15.5 µM
GI50 [14]: 1.77 µM
TGI [14]: 4.74 µM
GI50 [15]: 1.03 µM
TGI [15]: 7.05 µM
GI50 [16]: 8.36 µM
TGI [16]: > 55.9 µM
GI50 [17]: 0.363 µM
TGI [17]: 3.77 µM
GI50 [18]: 2.08 µM
TGI [18]: 28.1 µM
GI50 [19]: 0.959 µM
TGI [19]: 7.6 µM
GI50 [20]: 1.01 µM
TGI [20]: 14.3 µM
GI50 [21]: 0.5 µM
TGI [21]: 2.77 µM
GI50 [22]: 2 µM
TGI [22]: 6.54 µM
GI50 [23]: 1.55 µM
TGI [23]: 3.84 µM
GI50 [24]: 0.472 µM
TGI [24]: 2.07 µM
GI50 [25]: 1.4 µM
TGI [25]: 8.33 µM
GI50 [26]: 1.61 µM
TGI [26]: 16.8 µM
GI50 [27]: 0.743 µM
TGI [27]: 11.4 µM
GI50 [28]: 0.817 µM
TGI [28]: 12.9 µM
GI50 [29]: 4.32 µM
